Data taken from US10745408B2, “Biologically active taxane analogs and methods of treatment by oral administration” (Tapestry Pharmaceuticals, Inc., priority 2007, dated 2020).
“Also recorded” adds a separate entry of the source. Where two headings read alike, the source gives them in different places.

Legend:
[1] = Injection formulation administered IV and orally: mouse PK parameters; assay type: in vivo; conditions: for half-life: read-out: t ½ (converted)
MDA435s = experiment: MTS proliferation assay, breast MDA435s; assay type: cell-based
Experimental: (§1) MTS Proliferation Assay (Promega)
(§2) Day 1: Cells were plated in appropriate growth medium at 5×10^3 per well in 100 ul in 96 well tissue culture plates, Falcon, one for each drug to be tested. Col 1 was blank; it contained no cells, just medium. The plates were incubated overnight at 37° C., 5% CO2 to allow attachment.
(§3) Day 2: Added 120 ul growth medium in wells of 96-well “dilution plates” (one for each drug) and let sit in 37° C. incubator for about 1 hr.
(§4) Thawed DMSO drug stocks (usually at 10 mM). Each drug was diluted 6 ul into a tube with 3 ml growth medium, to 20 μM.
(§5) Aspirated medium from col 12 of a dilution plate; added 200-300 ul of 20 uM drug to wells of col 12. Made serial dilution down this 96-well plate: for a […] dilution pattern, moved 60 ul from col 12 to col 11, mixed 4-5 times (using 8 place multi-pipettor), moved 60 ul to col 10, etc. stopping at col 3.
(§6) Moved 100 ul of medium+drug from dilution plate to a cell plate, i.e. col 1 from drug plate (blank=no cells) to col 1 of cell plate, etc. up to col 12. Col 2 contained cells with no drug. […]
(§7) Day 4 or 5: Terminated the assay 48 to 72 hrs after drug addition. […] When the color turned dark in control wells (col 2), and was still light in col 12, the absorbance at 490 nm was read on a plate reader; the results were used to calculate IC50.

[2] = tested on: patients with advanced neoplasms; experiment: Phase 1 Study S-(1)-02 safety, tolerability and anti-neoplastic activity; assay type: in vivo, human
Source text: (§8) Both trials have enrolled patients with advanced solid tumors, non-Hodgkin's lymphoma or Hodgkin's lymphoma that have recurred or progressed following at least standard therapy; patients with malignancies for which there is no standard therapy; patients who are not candidates for standard therapy; or patients who have chosen not to pursue standard therapy. […] Study S-(1)-01 is currently being conducted in the United States. […] Study S-(1)-02 is currently being conducted in the United States and in Israel.
Treatment cohorts were expanded to 6 pts in the face of dose-limiting toxicity (DLT); pts could remain on study until the development of progressive disease or an intolerable adverse event. DLT was defined as Gr 4 heme toxicity lasting 7 days; febrile neutropenia, Gr 3 thrombocytopenia with bleeding, Gr 3 elevation of transaminases lasting 7 days or any other Gr 3/4 toxicity other than nausea or vomiting.

[3] = Phase 1 Study S-(1)-02 plasma pharmacokinetics (every 21 days); assay type: in vivo, human; conditions: for half-life / AUC(0-t): human, plasma; for AUC(0-t): read-out: AUC0-24
Source text: as §8
Plasma pharmacokinetics of S-(1) were assessed following the first dose of S-(1) in both studies. Plasma samples were analyzed for S-(1) using a validated LC/MS-MS method.

[4] = Crossing of rat blood-brain barrier (FIG. 1); assay type: in vivo
[5] = tested on: U251 human CNS tumor cells (glioblastoma); conditions: for survivors day 100: QD1, 5, 9; for median day of death and median survival time: intravenous, q4d×3
Source text: Tumor Model: Each animal was implanted with one million U251 human CNS tumor cells from an in vitro cell line by ic injection with a 25 gauge needle. The day of tumor implantation (May 24, 2006) was designated as day 0. A sufficient number of mice were implanted so that animals with body weights in a range as narrow as possible were selected for the trial on the day of treatment initiation (day 1 after tumor implantation). Animals were randomly assigned to the treatment groups and individually identified by earmark codes.
A portion of this solution was then diluted with the complete vehicle to achieve the lower dosing concentration of 1.2 mg/mL. […] Temozolomide (Temodar, Schering Corporation) was prepared on each day of injection in Klucel+tween 80 at a concentration of 4 mg/mL. Temozolomide was administered within 5 minutes of formulation on the basis of exact body weight using a volume of 0.2 mL/10 g of body weight.
Data Collection: Animal health surveillance was conducted and mortality data were collected daily. The animals were weighed twice weekly starting with the first day of treatment.
Study Duration: The study was terminated 100 days after tumor implantation. Any animal found moribund or whose body weight dropped below 14 g was euthanized prior to study termination.
Parameters Evaluated: Number of 100-day survivors, median day of death, and the increase in lifespan based on median day of death and expressed as a percentage (% ILS), median survival time and the % ILS based on median survival time.

KBV (MDR+) = experiment: MTS proliferation assay, head/neck KBV (MDR+); assay type: cell-based
Experimental: as §1, §2, §3, §4, §5, §6, §7

KB = experiment: MTS proliferation assay, head/neck KB; assay type: cell-based; conditions: Homo sapiens
Experimental: as §1, §2, §3, §4, §5, §6, §7

human tumor xenografts = experiment: Human tumor xenografts in nude mice (efficacy and MTD studies); assay type: in vivo
[6] = as above; assay type: in vivo; conditions: mouse, in vivo, po; nude mice, from efficacy and MTD studies; read-out: apparent oral bioavailability
[7] = mouse, in vivo, Oral 10 mg/kg, injection formulation
[8] = 56 mg/m^2 i.v., first dose, 15:85 Cremophor EL-P/ethanol formulation
[9] = 84 mg/m^2 i.v., first dose, 15:85 Cremophor EL-P/ethanol formulation
[10] = 126 mg/m^2 i.v., first dose, 15:85 Cremophor EL-P/ethanol formulation
[11] = 185 mg/m^2 i.v., first dose, 15:85 Cremophor EL-P/ethanol formulation

SMILES: C=C[C@H]1O[C@H]2C[C@H]3OC[C@@]3(OC(C)=O)[C@H]3[C@H](OC(=O)c4ccccc4)[C@]4(C(C)(C)O)CC(OC(=O)[C@H](O)C(CC(C)C)NC(=O)OC(C)(C)C)C(C)=C4[C@H](OC(C)=O)[C@H](O1)[C@]23C (stereo partly drawn) [S-(1)]
- F ([1]; Oral 10 mg/kg vs IV 10 mg/kg): 47%
- AUC(0-inf) ([1]; mouse, in vivo, IV 10 mg/kg): 7.74 µM·h
- AUC(0-t) ([1]; mouse, in vivo, IV 10 mg/kg): 6.3 µM·h
- clearance ([1]; mouse, in vivo, IV 10 mg/kg): 24.8 mL/min/kg
- Vd ([1]; mouse, in vivo, IV 10 mg/kg, read-out: Vdss): 13.3 L/kg
- half-life ([1]; mouse, in vivo, IV 10 mg/kg): 6.1 h
- AUC(0-inf) [1, 7]: 3.61 µM·h
- AUC(0-t) [1, 7]: 3.43 µM·h
- Cmax [1, 7]: 460 nM
- Tmax [1, 7]: 6 h
- half-life [1, 7]: 5.1 h
- IC50 (MDA435s): 10 nM
- Dose limiting toxicity ([2]; 160 mg/m^2 every 21 days): no DLT was observed
- Dose limiting toxicity ([2]; 185 mg/m^2 every 21 days): Grade 3 sensory neuropathy; also recorded: Gr 3 peripheral sensory neuropathy
- anti-neoplastic activity ([2]; 1 pt with pancreatic cancer): confirmed response
- Drug related adverse events ([2]; 56-185 mg/m^2 every 21 days): mucositis, vomiting, diarrhea, neutropenia, thrombocytopenia, myalgias and peripheral neuropathy
- dose that can be safely administered ([2]; every 21 days, heavily pre-treated patients): 160 mg/m^2
- Cl [3, 8]: 18.9 ± 9.53 L/hr/m^2
- Vss [3, 8]: 232 ± 93.6 L/m^2
- Cl [3, 9]: 15.4 L/hr/m^2
- Vss [3, 9]: 300 L/m^2
- Cl [3, 10]: 22.1 ± 11.2 L/hr/m^2
- Vss [3, 10]: 166 ± 105 L/m^2
- t1/2 [3, 10]: 6.27 ± 3.64 h
- Cl [3, 11]: 24.7 ± 12.2 L/hr/m^2
- Vss [3, 11]: 215 ± 116 L/m^2
- half-life ([3]; intravenous, S-(1)-02 study, all dose groups, read-out: Plasma t1/2 values, range over dose groups): 3.43 to 8.96 h
- AUC(0-t) ([3]; iv, 56 mg/m2, 56 mg/m^2 i.v., first dose, 15:85 Cremophor EL-P/ethanol formulation): 2530 ± 847 ng·h/mL
- half-life ([3]; iv, 56 mg/m2, 56 mg/m^2 i.v., first dose, 15:85 Cremophor EL-P/ethanol formulation, read-out: t1/2 (converted)): 8.96 ± 7.09 h
- AUC(0-t) ([3]; iv, 84 mg/m2, 84 mg/m^2 i.v., first dose, 15:85 Cremophor EL-P/ethanol formulation): 3710 ng·h/mL
- AUC(0-t) ([3]; iv, 126 mg/m2, 126 mg/m^2 i.v., first dose, 15:85 Cremophor EL-P/ethanol formulation): 6110 ± 3030 ng·h/mL
- half-life ([3]; iv, 126 mg/m2, 126 mg/m^2 i.v., first dose, 15:85 Cremophor EL-P/ethanol formulation, read-out: t1/2 (converted)): 10.6 ± 7.1 h
- AUC(0-t) ([3]; iv, 185 mg/m2, 185 mg/m^2 i.v., first dose, 15:85 Cremophor EL-P/ethanol formulation): 7260 ± 2620 ng·h/mL
- half-life ([3]; iv, 185 mg/m2, 185 mg/m^2 i.v., first dose, 15:85 Cremophor EL-P/ethanol formulation, read-out: t1/2 (converted)): 3.43 ± 7.31 h
- crossing of blood-brain barrier [4]: crosses rat blood-brain barrier
- survivors day 100 ([5]; S-(1) 12 mg/kg): 100 = 0)
- median day of death and median survival time ([5]; S-(1) 12 mg/kg/dose): 14.5 days
- survivors day 100 ([5]; S-(1) 20 mg/kg): 100 = 0)
- median day of death and median survival time ([5]; S-(1) 20 mg/kg/dose): 16 days
- effect against the U251 human CNS tumor cells (in words) ([5]; monotherapy or combination as dosed in the study): moderate effect
- IC50 (KBV (MDR+)): 553 nM
- IC50 (KB): 9.4 nM
- efficacy in mouse xenografts (human tumor xenografts; dosed either oral or iv): shows efficacy
- antitumor activity against multiple human tumor xenografts (human tumor xenografts; including xenografts that expressed mdr-1 and were resistant to other taxanes): demonstrated antitumor activity; also recorded: suppressed the growth
- bioavailability [6]: 40 to 80%
